Literature values in patent US20090203786A1, “Methods and Composition for Improving Cognitive Function” (priority 2005, published 2009).

Details: Connor W E et al. (1990)

In the case of CC/C=C\C/C=C\C/C=C\C/C=C\C/C=C\C/C=C\CCC(=O)O [DHA, docosahexaenoic acid], the “half-life of DHA in brain” value (Rhesus monkey brain) is given as 21 days and the “Cerebral DHA concentration relative to pre-supplementation value” (Rhesus monkeys, stabilized after 12 weeks of supplementation) is given as 7 times.
